In PMC8775498, “Development of Cobalt-Binding Peptide Chelate from Human Serum Albumin: Cobalt-Binding Properties and Stability” (International Journal of Molecular Sciences, 2022):
Where a SMILES comes first, the peptide text is derived from it.

Tests used:
in vitro = type: cell-based, rat; conditions: mouse, RAW 264.7 cells
Method: (§1) RAW 264.7 and HEK 293T cells were cultured at 37 °C under 5% CO2 in 95% DMEM supplemented with 10% FBS and 1% P/S antibiotics. The RAW 264.7 and HEK 293T cells were harvested in 3 mL of DMEM, and centrifugation was performed at 1200× g using the AllegraTM X-12R centrifuge (BECKMAN COULTER). The cell pellet was resuspended in 1 mL of DMEM. The number of cells was counted using a hemocytometer. The cell viability was measured using MTT assay according to the method of Mirzapour-Kouhdasht, Moosavi-Nasab, with a few modifications. The cells were first plated at a density of a 5 × 10^4 cells/well in a 96-well plate. After overnight incubation, the wAlb12 and wAlb12 + Co(II) each dissolved in buffer were used to treat the cells by concentration, which were then incubated for 24 h at 37 °C. Next, 10 µL of 5 mg mL^−1 MTT stock solution was added to each well, and the plate was incubated for 4 h at 37 °C. Next, the medium was removed and 100 µL of DMSO was added to each well to lyse the cells. The treated cells were incubated at 37 °C for 20 min and their absorbance was measured at a wavelength of 600 nm using an ELISA reader (Autobio, Phomo). The percentage viability was calculated using the following formula:Cell viability (%) = [(As) − (Ab)]/[(Ac) − (Ab)] × 100 where As, Ab, and Ac are the absorbance values of the peptide-treated cells, blank, and control samples, respectively.

HEK 293T cells = type: cell-based, human
Method: as §1

[1] = LC-MS analysis of Co(II) binding (alanine scanning analogs); conditions: 0.5 mM peptide mixed with 0.5 mM CoCl2; judged by change in molecular weight (about 56) and retention time in LC-MS
Method: A mutation was performed to identify the binding properties of wAlb12. […] amino acids of wAlb12 were substituted with alanine and the remaining alanine of wAlb12 was substituted with serine (D1A, A2S, H3A, K4A, S5A, E6A, V7A, A8S, H9A, R10A, F11A, and K12A). In addition, the N-terminal region of wAlb12 was acetylated (Ac-wAlb12). The only N-terminal α-amino group of wAlb12 was acetylated under 70% DCM, 25% acetic anhydride, and 5% triethylamine for 2 h after Fmoc cleavage by 20% piperidine. All of the analogs were synthesized by SPPS, and the purity and molecular weight were confirmed using liquid chromatography-mass spectrometry (LC-MS). The high-performance liquid chromatography (HPLC) gradient program was set up with 5% to 35% buffer B for 15 min, and the molecular weights of the prepared analogs were confirmed using MS in the range of 200 to 1800 m/z.
To verify the binding of peptides to Co(II), HPLC and LC-MS were performed to confirm the retention time and molecular weight. RT-HPLC analyses were performed using Shimadzu 10AD system with a Sunfire® column (C18 5 μm 4.6 mm × 250 mm, Waters, Milford, MA, USA) and a flow rate of 1 mL/min with buffer B (100% acetonitrile containing 0.05% TFA) and buffer A (100% H2O containing 0.05% TFA). The eluted components were monitored at an absorbance of 230 nm with a gradient from 5% to 35% of buffer B for 15 min. […]

In the case of `CC(C)[C@H](NC(=O)[C@H](CCC(=O)O)NC(=O)[C@H](CO)NC(=O)[C@H](CCCCN)NC(=O)[C@H](Cc1c[nH]cn1)NC(=O)[C@H](C)NC(=O)[C@@H](N)CC(=O)O)C(=O)N[C@@H](C)C(=O)N[C@@H](Cc1c[nH]cn1)C(=O)N[C@@H](CCCNC(=N)N)C(=O)N[C@@H](Cc1ccccc1)C(=O)N[C@@H](CCCCN)C(N)=O` [wAlb12] (H-DAHKSEVAHRFK-NH2), the viability at 24 h (in vitro) is reported as over 100% and the “toxicity to HEK 293T cells” value (HEK 293T cells) is reported as “non-toxic”.
In the case of “Ac-DAHKSEVAHRFK [Ac-wAlb12, wAlb12 with acetylated N-terminal α-amino group]”, the “Binding (adding Co(II))” value [1] is reported as “not bound and No”.
